The target of series [1] is T1, α7-nAChR (Mus musculus, UniProt P49582). The following applies: in vivo; cited from earlier work.
In series [2] the target is T2, α7-nAChR (Homo sapiens, UniProt P36544). To be noted: read-out: α7-nAChR, Ki, cited from earlier work.
For series [3], the target named is α7-nAChR (Rattus norvegicus, UniProt Q05941). Briefly: biochemical. Type of series: binding.
Series [4] addresses T1, α7-nAChR. The series can be described thus: Blockade of [18F]ASEM in CD1 mice with mouse-equivalent doses of clinical α7-nAChR drugs. Type of series: in vivo. More on the design: The brains were rapidly removed and dissected on ice; tissue Charles River Laboratories; host or cells: brain of live male CD-1 mice.
Series [5] concerns the target T3, α2β4-nAChR (Rattus norvegicus, UniProt P12389+P12392).
T3 construct: expressed in transfected cells
The series can be described thus: Heteromeric nAChR binding assay, transfected HEK293 membranes, [3H]epibatidine.

In series [6] the target is α2β2-nAChR (Rattus norvegicus, UniProt P12389+P12390). The series is described as above.
In series [7] the target is T4, α3β4-nAChR (Rattus norvegicus, UniProt P04757+P12392).
T4 construct: expressed in transfected cells
The description is as above.

Series [8] deals with α4β2-nAChR (Rattus norvegicus, UniProt P09483+P12390). The description is as above.
Series [9] addresses T5, α4β4-nAChR (Rattus norvegicus, UniProt P09483+P12392).
T5 construct: expressed in transfected cells
The description is as above.

Series [10] deals with α3β2-nAChR (Rattus norvegicus, UniProt P04757+P12390). Described as above.
Series [11] has as its target T1, α7-nAChR. The following applies: in vivo.
Series [12] addresses T6, Human 5-HT3 (Homo sapiens, UniProt P46098).
T6 sequence (P46098 24-478): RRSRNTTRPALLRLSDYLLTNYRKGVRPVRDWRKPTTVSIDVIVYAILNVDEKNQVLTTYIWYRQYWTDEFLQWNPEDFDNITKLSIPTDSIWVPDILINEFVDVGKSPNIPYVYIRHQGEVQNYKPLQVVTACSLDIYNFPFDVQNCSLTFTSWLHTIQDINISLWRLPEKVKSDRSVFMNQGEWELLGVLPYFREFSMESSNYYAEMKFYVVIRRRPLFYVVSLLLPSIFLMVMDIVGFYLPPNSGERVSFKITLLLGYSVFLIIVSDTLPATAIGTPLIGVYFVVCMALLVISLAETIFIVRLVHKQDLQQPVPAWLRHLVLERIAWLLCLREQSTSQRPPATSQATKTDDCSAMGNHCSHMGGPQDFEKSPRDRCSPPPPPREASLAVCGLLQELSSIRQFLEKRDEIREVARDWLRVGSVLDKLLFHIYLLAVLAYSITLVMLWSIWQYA
Briefly: 5-HT3(h) binding assay, recombinant HEK293 cells, [3H]GR65630.

In series [13] the target is T1, α7-nAChR. The following applies: drugs 2 mg/kg sc, 10 min before radiotracer, 90 min.
In series [14] the target is T1, α7-nAChR. To be noted: in vivo. The source holds these as a separate data set.
Series [15] addresses T1, α7-nAChR. More on the design: The brains were rapidly removed and dissected on ice; tissue Charles River Laboratories; host or cells: brain of live male CD-1 mice; species or system CD-1 mice. To be noted: in vivo.
In series [16] the target is T2, α7-nAChR. The following applies: read-out: Ki α7-nAChR (literature); cited from earlier work.
In series [17] the target is T1, α7-nAChR. More on the design: The brains were rapidly removed and dissected on ice; tissue Charles River Laboratories; host or cells: brain of live male CD-1 mice; species or system CD-1 mice. The following applies: in vivo. This is another data set of the same source.
The mark [18] stands for this setting: previously published values, varied assay conditions.
Setting [19] is: stably transfected HEK293 cells, [3H]epibatidine (0.5 nM).

Where “and” joins values, the source holds several entries; their conditions need not be identical. Identical values can stand only once. Like-named read-outs stand apart in the source and are kept apart here.

T2 sequence (P36544 23-502): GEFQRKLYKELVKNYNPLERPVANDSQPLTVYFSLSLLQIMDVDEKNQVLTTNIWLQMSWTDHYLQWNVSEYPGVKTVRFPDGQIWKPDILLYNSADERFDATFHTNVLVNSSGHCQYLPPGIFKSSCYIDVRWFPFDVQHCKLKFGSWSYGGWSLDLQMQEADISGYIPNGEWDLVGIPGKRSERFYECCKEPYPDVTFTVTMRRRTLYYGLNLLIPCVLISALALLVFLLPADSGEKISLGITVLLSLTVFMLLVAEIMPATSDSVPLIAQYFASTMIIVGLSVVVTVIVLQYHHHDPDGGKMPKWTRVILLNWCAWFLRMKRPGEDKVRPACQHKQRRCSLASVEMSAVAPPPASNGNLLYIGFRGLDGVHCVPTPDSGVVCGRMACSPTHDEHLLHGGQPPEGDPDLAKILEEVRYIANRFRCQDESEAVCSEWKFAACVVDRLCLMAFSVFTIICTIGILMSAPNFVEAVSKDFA
α2β2-nAChR, sequence (P12389 28-511): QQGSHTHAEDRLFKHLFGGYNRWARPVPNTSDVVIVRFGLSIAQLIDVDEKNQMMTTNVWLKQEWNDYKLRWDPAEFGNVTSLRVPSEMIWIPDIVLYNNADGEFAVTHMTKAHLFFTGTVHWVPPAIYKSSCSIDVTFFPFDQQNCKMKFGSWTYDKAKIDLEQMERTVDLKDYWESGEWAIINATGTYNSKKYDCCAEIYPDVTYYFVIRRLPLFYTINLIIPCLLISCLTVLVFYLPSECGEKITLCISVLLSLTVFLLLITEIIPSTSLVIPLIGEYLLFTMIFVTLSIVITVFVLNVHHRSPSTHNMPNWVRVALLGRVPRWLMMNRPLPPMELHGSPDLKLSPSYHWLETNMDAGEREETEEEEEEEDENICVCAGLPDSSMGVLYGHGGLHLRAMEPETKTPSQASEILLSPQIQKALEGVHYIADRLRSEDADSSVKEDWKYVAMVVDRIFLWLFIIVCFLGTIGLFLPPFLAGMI
α2β2-nAChR, sequence (P12390 25-500): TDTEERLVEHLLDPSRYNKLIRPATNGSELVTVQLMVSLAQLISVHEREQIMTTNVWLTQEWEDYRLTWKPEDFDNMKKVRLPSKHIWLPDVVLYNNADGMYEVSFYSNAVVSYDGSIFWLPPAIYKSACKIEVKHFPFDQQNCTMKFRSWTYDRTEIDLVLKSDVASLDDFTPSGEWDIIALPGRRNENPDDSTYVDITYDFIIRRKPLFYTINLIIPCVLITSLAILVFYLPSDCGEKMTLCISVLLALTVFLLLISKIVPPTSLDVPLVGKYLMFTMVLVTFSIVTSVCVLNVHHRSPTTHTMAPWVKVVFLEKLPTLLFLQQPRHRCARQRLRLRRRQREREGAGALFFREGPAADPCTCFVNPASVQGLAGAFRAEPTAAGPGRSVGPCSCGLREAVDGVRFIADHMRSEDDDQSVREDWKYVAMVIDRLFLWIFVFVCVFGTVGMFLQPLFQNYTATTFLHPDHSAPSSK
T3 sequence (P12389 28-511): as the sequence (P12389 28-511) above
T3 sequence (P12392 21-495): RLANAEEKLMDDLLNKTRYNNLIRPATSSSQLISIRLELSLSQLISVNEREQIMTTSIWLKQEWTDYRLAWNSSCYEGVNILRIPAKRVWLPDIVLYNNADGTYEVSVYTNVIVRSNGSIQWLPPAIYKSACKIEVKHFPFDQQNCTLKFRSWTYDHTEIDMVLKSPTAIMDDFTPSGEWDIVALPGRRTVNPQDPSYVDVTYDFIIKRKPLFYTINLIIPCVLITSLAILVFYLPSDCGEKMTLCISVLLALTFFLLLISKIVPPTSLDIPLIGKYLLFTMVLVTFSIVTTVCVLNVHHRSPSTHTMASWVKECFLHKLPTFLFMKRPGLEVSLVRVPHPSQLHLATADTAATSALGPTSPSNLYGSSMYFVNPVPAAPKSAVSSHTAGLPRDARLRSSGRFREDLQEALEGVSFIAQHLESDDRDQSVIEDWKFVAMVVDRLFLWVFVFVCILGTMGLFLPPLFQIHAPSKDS
T1 sequence (P49582 23-502): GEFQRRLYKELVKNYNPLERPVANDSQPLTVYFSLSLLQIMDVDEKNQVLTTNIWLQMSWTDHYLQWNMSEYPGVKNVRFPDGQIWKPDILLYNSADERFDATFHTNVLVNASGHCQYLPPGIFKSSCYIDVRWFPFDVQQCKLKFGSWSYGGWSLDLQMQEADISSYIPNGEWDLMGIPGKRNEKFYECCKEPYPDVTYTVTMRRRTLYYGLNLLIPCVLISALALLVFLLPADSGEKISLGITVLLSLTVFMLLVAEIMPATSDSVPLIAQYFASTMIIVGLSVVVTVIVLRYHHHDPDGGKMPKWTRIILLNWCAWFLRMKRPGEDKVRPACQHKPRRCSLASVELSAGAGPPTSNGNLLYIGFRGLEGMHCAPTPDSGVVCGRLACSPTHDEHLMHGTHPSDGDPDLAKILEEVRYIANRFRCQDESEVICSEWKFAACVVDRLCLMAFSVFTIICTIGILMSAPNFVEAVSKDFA
α3β2-nAChR, sequence (P04757 26-499): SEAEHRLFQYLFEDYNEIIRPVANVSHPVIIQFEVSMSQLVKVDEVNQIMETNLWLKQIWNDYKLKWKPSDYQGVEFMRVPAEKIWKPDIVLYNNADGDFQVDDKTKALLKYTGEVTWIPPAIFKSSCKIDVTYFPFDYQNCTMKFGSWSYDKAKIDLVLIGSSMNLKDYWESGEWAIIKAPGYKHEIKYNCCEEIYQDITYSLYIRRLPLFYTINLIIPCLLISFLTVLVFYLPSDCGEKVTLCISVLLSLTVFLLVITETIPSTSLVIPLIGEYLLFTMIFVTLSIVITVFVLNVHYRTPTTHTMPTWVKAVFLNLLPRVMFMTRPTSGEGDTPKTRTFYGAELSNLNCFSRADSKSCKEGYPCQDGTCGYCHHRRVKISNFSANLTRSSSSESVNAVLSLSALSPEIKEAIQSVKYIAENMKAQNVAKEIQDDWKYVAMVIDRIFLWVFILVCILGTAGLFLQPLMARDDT
α3β2-nAChR, sequence (P12390 25-500): as the sequence (P12390 25-500) above
T4 sequence (P04757 26-499): as the sequence (P04757 26-499) above
T4 sequence (P12392 21-495): as the sequence (P12392 21-495) above
α7-nAChR (Rattus norvegicus, UniProt Q05941), sequence (Q05941 23-502): as the sequence (P49582 23-502) above, with T402A counted along it
α4β2-nAChR, sequence (P09483 31-630): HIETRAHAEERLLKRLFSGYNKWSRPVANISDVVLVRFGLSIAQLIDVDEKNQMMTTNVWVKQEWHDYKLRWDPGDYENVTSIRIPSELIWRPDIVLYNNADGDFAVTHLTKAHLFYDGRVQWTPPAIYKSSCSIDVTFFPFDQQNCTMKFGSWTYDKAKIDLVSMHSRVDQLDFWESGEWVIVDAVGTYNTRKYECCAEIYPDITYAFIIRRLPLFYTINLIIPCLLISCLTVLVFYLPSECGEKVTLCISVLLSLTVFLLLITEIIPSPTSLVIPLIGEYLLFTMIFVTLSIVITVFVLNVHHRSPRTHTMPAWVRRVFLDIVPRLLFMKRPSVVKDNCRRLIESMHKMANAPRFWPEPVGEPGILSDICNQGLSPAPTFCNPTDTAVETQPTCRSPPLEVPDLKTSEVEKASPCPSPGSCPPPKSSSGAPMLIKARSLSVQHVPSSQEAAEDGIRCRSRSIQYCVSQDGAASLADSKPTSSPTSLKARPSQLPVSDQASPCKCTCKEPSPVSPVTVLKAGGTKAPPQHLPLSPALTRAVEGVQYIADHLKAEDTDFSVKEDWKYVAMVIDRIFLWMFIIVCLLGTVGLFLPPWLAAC
α4β2-nAChR, sequence (P12390 25-500): as the sequence (P12390 25-500) above
T5 sequence (P09483 31-630): as the sequence (P09483 31-630) above
T5 sequence (P12392 21-495): as the sequence (P12392 21-495) above

What is called Ki is the dissociation constant of the complex between target and ligand, obtained from inhibition or displacement. For `[18F]c1ccccc1-c1cnc2c(c1)CC1(CN3CCC1CC3)O2` (centres unmarked), the “BPND in cortex, Mice” value in series [1] is reported as 0.8. Moreover, in series [2], the Ki is 0.2 nM.
For `O=S1(=O)c2cc(N3CCN4CCC3CC4)ccc2-c2cccc(I)c21` [Compound 14, 3-(1,4-Diazabicyclo[3.2.2]nonan-4-yl)-6-iododibenzo[b,d]-thiophene 5,5-Dioxide], the inhibition constant Ki in [3] (read-out: Ki α7-nAChR) was determined as 0.93 nM.
With `[11CH3]N1CC2CN(c3ccc(-c4ccccc4)nn3)CC2C1` (centres unmarked), the “BPND in cortex, Mice” value in [1] is on record as 0.2-0.5. In addition, the Ki in [2] was 10.8 nM.
Take `[18F]c1ccc(-c2nnc(N3CCN4CCC3CC4)o2)cc1`: in series [1], the “BPND in cortex, Mice” value is given as 0.4.
For the compound `[11CH3]N1CC2CN(c3ccc4c(c3)C(=O)C3C=CC=CC3O4)CC2C1` (centres unmarked), the Ki in series [2] (setting [18]) is 11 nM.
In the case of `COc1ccc(/C=C2\CCCN=C2c2cccnc2)c(OC)c1` [DMXB-A, Dimethoxybenzylidene anabaseine], the “blockade of [18F]ASEM binding” value is 40% in [4] (3 mg/kg, cortex); 28% in series [4] (3 mg/kg, hippocampus); 50-70% in series [4] (10 mg/kg, hippocampus, cortex, subcolliculus); 50-60% in [4] (25 mg/kg, hippocampus, cortex, superior and inferior colliculus); “did not show significant blockade” in series [4] (0.1, 0.3, and 1 mg/kg).
Consider `[11CH3]N1CC2CN(c3ccc(-c4ccc5[nH]ccc5c4)nn3)CC2C1` (centres unmarked), for which the “BPND in cortex, Mice” value in series [1] was 0.5.
For the compound `O=[N+]([O-])c1cccc2c1S(=O)(=O)c1cc(N3CCN4CCC3CC4)ccc1-2` [Compound 10, 3-(1,4-Diazabicyclo[3.2.2]nonan-4-yl)-6-nitrodibenzo[b,d]-thiophene 5,5-Dioxide], the results for the Ki in series [3] (Ki α7-nAChR) and in [3] (read-out: Ki α7-nAChR) were 0.35 nM and 0.34 nM, respectively.
As for `O=S1(=O)c2ccccc2-c2ccc(N3CCN4CCC3CC4)c(F)c21` [Compound 7d, 3-(1,4-Diazabicyclo[3.2.2]nonan-4-yl)-4-fluorodibenzo[b,d]-thiophene 5,5-Dioxide], the Ki in series [5] is 838 nM; in series [6] it was 292 nM; in series [7] it was 3000 nM; in [8], 141 nM; in [3] (read-out: Ki α7-nAChR), 1.83 nM and 2.45 nM; in series [9] it was 1000 nM. Besides, the Ki in [10] came to 678 nM. Besides, in [8], the “selectivity α7/α4β2” value came out at 66.
Take `O=[11C](Nc1ccc(Br)cc1)OC1CN2CCC1CC2` (centres unmarked): the “BPND in cortex, Mice” value in [1] was roughly 0.3.
Consider `[11CH3]c1ccc(OC(=O)N2CCN3CCC2CC3)cc1`, for which the “BPND in cortex, Mice” value in series [1] is recorded as roughly 0.6.
In the case of `O=S1(=O)c2ccc(F)cc2-c2ccc(N3CCN4CCC3CC4)cc21` [Compound 7c, 7-(1,4-Diazabicyclo[3.2.2]nonan-4-yl)-2-fluorodibenzo[b,d]-thiophene 5,5-Dioxide], the Ki amounted to 8000 nM in series [5] (setting [19]); 1000 nM in series [6] (setting [19]); 5000 nM in series [7] (setting [19]); 885 nM in series [8] (setting [19]); 1.35 nM in series [3] (Ki α7-nAChR); 1.3 nM in [3] (Ki α7-nAChR (text)). The Ki stood at 1.32 nM in series [3] (read-out: Ki α7-nAChR); 3000 nM in series [9] (setting [19]); 505 nM in [12] (Human 5-HT3 recombinant/HEK293 cells, [3H]GR65630 (0.35 nM)); 2000 nM in series [10] (setting [19]). In addition, the “selectivity α7/α4β2” value in series [8] is recorded as 663. Also, in series [11], the “behavioral / locomotor activity changes” value is listed as “Neither behavioral nor locomotor activity changes were observed”. The “selectivity α7/5HT3” value in series [12] was found to be 378.
Regarding `[11CH3]n1cccc1-c1nnc(N2CCN3CCC2CC3)o1`, the Ki in series [2] was 2.2 nM.
For `[18F]CCn1ccc2ccc(-c3nnc(N4CCN5CCC4CC5)o3)cc21`, the Ki in series [2] is 2.5 nM.
Take `[125I]c1occc1-c1cnc2c(c1)CC1(CN3CCC1CC3)O2` (centres unmarked): the “BPND in cortex, Mice” value in series [1] is on record as 0.6. In addition, the Ki in series [2] was 0.26 nM.
For the compound `O=S1(=O)c2ccc(I)cc2-c2ccc(N3CCN4CCC3CC4)cc21` [Compound 15, 7-(1,4-Diazabicyclo[3.2.2]nonan-4-yl)-2-iododibenzo[b,d]-thiophene 5,5-Dioxide], the Ki is 6000 nM in [5]; 784 nM in series [6]; 9000 nM in [7]; 477 nM in series [8]; 6.46 nM and 8.77 nM in series [3] (read-out: Ki α7-nAChR); 5000 nM in [9]. The compound also yielded a Ki in series [10] of 1000 nM. Besides, the “selectivity α7/α4β2” value in [8] came to 63.
Turning to `O=C(Oc1ccc([76Br])cc1)N1CCN2CCC1CC2`, the Ki in series [2] (setting [18]) is 24.9 nM.
For the compound `O=S1(=O)c2ccccc2-c2c(N3CCN4CCC3CC4)ccc(F)c21` [Compound 7e, 1-(1,4-Diazabicyclo[3.2.2]nonan-4-yl)-4-fluorodibenzo[b,d]-thiophene 5,5-Dioxide], the Ki is 562 nM in series [5] (setting [19]); 261 nM in [7] (setting [19]); 4000 nM in series [8] (setting [19]); 17.8 nM and 20.3 nM in [3] (read-out: Ki α7-nAChR); 251 nM in series [9] (setting [19]); 2000 nM in [10] (setting [19]). Moreover, in [8], the “selectivity α7/α4β2” value is reported as 210.
`Cc1nccn1CC1CCc2c(c3ccccc3n2C)C1=O` (centres unmarked) [ondansetron]: the “effect on accumulation of [18F]7a in mouse brain” value in series [13] is “absence of blockade”.
On to `O=c1cccc2n1C[C@@H]1CNC[C@H]2C1` [cytisine], for which the “blockade of [18F]7a accumulation in mouse brain” value in [14] is given as “insignificant reduction of radioactivity accumulation in all regions studied”.
`O=S1(=O)c2ccc([18F])cc2-c2ccc(N3CCN4CCC3CC4)cc21` [[^18F]7c, 4-(8-[^18F]fluorodibenzo[b,d]thiophen-3-yl)-1,4-diazabicyclo[3.2.2]nonane 5,5-dioxide]: in [15], the “Approximate BPND, Coll” value came to 2.0 ± 0.5; the “Approximate BPND, Ctx” value was 2.0 ± 0.3; the “Approximate BPND, Hipp” value was 3.1 ± 0.7. Further, in series [15] (iv), the “ratios of tissues to cerebellum” value amounted to 4.5. Besides, in series [11], the baseline-to-blockade ratio is 5 and the specific binding value is given as 80%. The compound also yielded a Ki in [3] (Ki α7-nAChR (text)) of 1.3 nM.
As to `[11CH3]N1CC2CN(c3ccc(-c4ccc5[nH]ccc5c4)nc3)CC21` (centres unmarked) [5-(5-(6-[(11)C]methyl-3,6-diazabicyclo[3.2.0]heptan-3-yl)pyridin-2-yl)-1H-indole], the “BPND in cortex, Mice” value in [1] is given as 1.9.
Turning to `O=S1(=O)c2ccccc2-c2ccc(N3CCN4CCC3CC4)cc21` [Compound 5, 3-(1,4-diazabicyclo[3.2.2]nonan-4-yl)dibenzo[b,d]thiophene 5,5-dioxide, reference compound], the Ki is 0.023 nM in [16]; 0.3 nM and 0.5 nM in series [3] (read-out: Ki α7-nAChR (reference compounds)). Further, the “blockade of [18F]7c accumulation in mouse brain” value in [17] is on record as “dose dependent blockade”.
In the case of `O=S1(=O)c2cc(F)ccc2-c2ccc(N3CCN4CCC3CC4)cc21` [Compound 7b, 4-(7-Fluorodibenzo[b,d]thiophen-3-yl)-1,4-diazabicyclo-[3.2.2]nonane 5,5-Dioxide], the Ki in series [3] (read-out: Ki α7-nAChR) was 1.02 nM and 1.37 nM.
On the same count and under the same terms, in the case of `O=[N+]([O-])c1ccc2c(c1)-c1ccc(N3CCN4CCC3CC4)cc1S2(=O)=O` [Compound 11, 7-(1,4-Diazabicyclo[3.2.2]nonan-4-yl)-2-nitrodibenzo[b,d]-thiophene 5,5-Dioxide] it was 3.41 nM and 6.21 nM.
With `CN1CCCC1c1cccnc1` (centres unmarked) [nicotine], the “blockade of [18F]7a accumulation in mouse brain” value in [14] is given as “significant blockade in all regions except the nAChR-poor cerebellum”.

Source of the values: patent US20170296682A1, “DERIVATIVES OF DIBENZOTHIOPHENE IMAGING OF alpha-7 NICOTINIC ACETYLCHOLINE RECEPTORS” (THE JOHNS HOPKINS UNIVERSITY, priority 2015, published 2017).
